Assay results as given in patent US5683725A, “Modulation of substance P by compounds containing calcium sulfate and methods relating thereto” (BioFrontiers, Inc., priority 1995, dated 1997).
Values joined by “and” are separate entries in the source; they are usually repeats but may differ in a detail not shown here. Identical values can stand only once. No end group written: not given here.

Columns and labels:
[1] = tested on: substance P-induced contractions of guinea pig ileum; assay: Antagonism of substance P: inhibition of substance P-induced contractions of isolated guinea pig ileum; conditions: for Antagonist Activity (% Inhibition): 100 μM, substance P-induced contractions of isolated guinea pig ileum, 37° C., with atropine, diphenhydramine, indomethacin; for Modulation of substance P (in words): conclusion from Table 1
From the text: The ability of the calcium sulfate compounds of this invention to modulate substance P may be assayed by known techniques, such as those disclosed by Mizrahi et al. (Eur. J. Pharmacol. 91:139-140, 1983) and Holzer et al. (P. Eur. J. Pharmacol. 91:83-88, 1983). For example, PanLabs Test Numbers 3-0580 screen the ability of compounds to function as substance P antagonists by determining the ability of the compound to inhibit substance P-induced contractions of guinea pig ileum (see Example 6 herein below).
This example illustrates the ability of representative calcium sulfate compounds of this invention to modulate substance P by functioning as substance P antagonists. Activity was measured by the procedures disclosed by Mizrahi et al. (Eur. J. Pharmacol. 91:139-140, 1983) and Holzer et al., (Eur. J. Pharmacol. 91:83-88, 1983). Specifically, isolated guinea pig ileum, bathed in physiological salt solution containing atropine (4.5 μM), diphenhydramaine (3.4 μM), and indomethacin (2.8 μM) at 37° C. was used. The ability of a test compounds to inhibit substance P-induced contractions of the illeum indicates antagonist activity.

[2] = Single oral dose toxicity in Sprague Dawley rats, 14 day observation; format: in vivo, rat (Sprague Dawley); conditions: single oral dose 5 g/kg
Experimental: This example illustrates the non-toxic nature of a representative calcium sulfate compound of this invention (i.e., syngenite).
To determine the potential toxicity and/or toxic effects of syngenite when administered as a single oral dose in rats, 5 male and 5 female Sprague Dawley rats (200-300 grams) were administered syngenite at a dose level of 5 g/kg body weight by syringe and suitable intubation tubes.
The body weight of each rat was recorded (in grams) just prior to administration of syngenite (Day 0), and weekly thereafter for two weeks (i.e., Day 7 and Day 14).

stomach injury = conditions: cited from earlier work
neurogenic inflammation = conditions: pretreatment of the oral mucosa; cited from earlier work
cluster headaches = conditions: intranasal, humans; cited from earlier work
febrile response = conditions: microinjected into the preoptic area of conscious guinea pigs; cited from earlier work
nasal protein output = conditions: exogenously applied, allergic rhinitis patients; cited from earlier work

Which results are given for `O.O.O=S(=O)([O-])[O-].[Ca+2]` [Gypsum, calcium sulfate dihydrate]?
Antagonist Activity (% Inhibition) [1]: 39%; Modulation of substance P (in words) [1]: effective modulating agents of substance P

Which “Antagonist Activity (% Inhibition)” value [1] does the source give for `O.O=S(=O)([O-])[O-].O=S(=O)([O-])[O-].O=S(=O)([O-])[O-].O=S(=O)([O-])[O-].O=S(=O)([O-])[O-].O=S(=O)([O-])[O-].[Ca+2].[Ca+2].[Ca+2].[Ca+2].[Ca+2].[K+].[K+]` [Gorgeyite] here?
Its value is 16%.

What about the “Modulation of substance P (in words)” value [1] of the same compound?
The value was “effective modulating agents of substance P”.

With `O.O=S(=O)(O)O.O=S(=O)(O)O.[Ca].[K].[K]` [Syngenite] as the compound, how does the “Body weight, Day 7” value ([2]; female rats) read?
Its value is 255 grams and 266 grams and 251 grams and 269 grams and 279 grams.

And the “Body weight, Day 14” value ([2]; female rats)?
Its value is 256 grams and 273 grams and 287 grams and 299 grams.

What about the “Body weight, Day 7” value ([2]; male rats) of the same compound?
Its value is 350 grams and 333 grams and 329 grams and 336 grams and 337 grams.

And the “Body weight, Day 14” value ([2]; male rats)?
The value was 395 grams and 374 grams and 375 grams and 368 grams and 386 grams.

What about the “Gross abnormalities at necropsy” value [2] of the same compound?
Its value is “No gross abnormalities in any of the animals were observed”.

What about the Survival / mortality ([2]; 5 male and 5 female rats, 14 days) of the same compound?
The Survival / mortality was “All ten test animals survived the 14 day observation period”.

What about the Appearance of animals ([2]; 14 days) of the same compound?
The Appearance of animals was “all animals appeared normal”.

And the Clinical observations ([2]; 14 days)?
The Clinical observations was “No clinical observations were noted”.

And the “Toxicity (overall)” value ([2]; rats)?
The value was “non-toxic”.

What about the “Antagonist Activity (% Inhibition)” value [1] of the same compound?
The value was 40%.

And the “Modulation of substance P (in words)” value [1]?
The value was “effective modulating agents of substance P”.

Which results are given for `COc1cc(CNC(=O)CCCC/C=C/C(C)C)ccc1O` [capsaicin]?
Area of stomach injury (stomach injury; intragastric, prior to challenge with 30% ETOH): reduced the area of stomach injury; Neurogenic inflammation upon local administration of substance P (neurogenic inflammation): prevents neurogenic inflammation; Severity of cluster headaches (cluster headaches): decrease the severity of cluster headaches

Which “Areas of injury (stomach)” value (stomach injury; given IV) does the source give for “substance P: undecapeptide, member of the tachykinin family of mammalian regulatory peptides (RPKPQQFFGLM; ends and bridges not checked; UniProt P20366 58-68, looked up)” here?
Its value is “increased the areas of injury”.

What about the Temperature (febrile response) of the same compound?
Its Temperature is “caused an increase in temperature”.

And the Nasal protein output (nasal protein output)?
Its Nasal protein output is “causes an increase in nasal protein output”.
